For one assay, the target named is T1, sterol 14-reductase (Rattus norvegicus, UniProt A0ACM8Q6X4).
T1 construct: to give a microsome which was used as an enzyme source of sterol 14-reductase; from tissue
T1 sequence (A0ACM8Q6X4 1-418): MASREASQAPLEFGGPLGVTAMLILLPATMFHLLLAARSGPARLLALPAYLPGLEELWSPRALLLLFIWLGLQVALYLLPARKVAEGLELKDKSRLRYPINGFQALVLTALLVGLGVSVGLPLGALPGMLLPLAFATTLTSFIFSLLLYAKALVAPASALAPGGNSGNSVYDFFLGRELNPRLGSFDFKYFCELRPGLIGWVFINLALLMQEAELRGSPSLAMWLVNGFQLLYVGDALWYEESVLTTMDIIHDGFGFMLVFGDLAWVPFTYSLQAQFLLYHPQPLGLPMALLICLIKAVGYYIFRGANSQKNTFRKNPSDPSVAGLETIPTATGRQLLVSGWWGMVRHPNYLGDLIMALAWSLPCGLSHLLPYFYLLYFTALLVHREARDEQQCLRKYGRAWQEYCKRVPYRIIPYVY
The experiment in a line: Sterol 14-reductase assay with rat liver microsomes (substrate 4,4-dimethyl-5α-cholesta-7,14-dien-3β-ol, GLC). The assay is classed as biochemical, Sprague-Dawley rats.
Conditions: not given
For the compound `COc1cc2c(cc1OC)-c1c(C)c3ccc(OC)c(OC)c3c[n+]1CC2`, the “inhibition of sterol 14-reductase (in words)” value is “effectively inhibit”.

The same assay, now with this note: dissolved in DMSO; read-out: concentration of active ingredient in the assay at which 50% of inhibitory effect was observed (sterol 14-reductase).
As to `COc1cc2c(cc1OC)-c1c(C)c3ccc(OC)c(OC)c3c[n+]1CC2`, the IC50 is 40000 to 50000 µM.

The same assay, now with this note: read-out: Enzyme Activity (relative in vitro activity for sterol 14-reductase, IC50 class).
`COc1ccc2c(C)c3[n+](cc2c1OC)CCc1cc2c(cc1-3)OCO2` [Compound No. 1, 13-Methylberberine]: the IC50 lay in the range of 10 to 100 µM.

For the compound `COc1ccc2c(C)c3[n+](cc2c1OC)CCc1cc(O)c(O)cc1-3` [Compound No. 2, 2,3-Dihydroxy-13-methylberberine], the IC50 was 10 to 100 µM. As for `CCC1=C2c3cc(OC)c(OC)cc3CCN2C(C2CCCCC2=O)c2c1ccc(OC)c2OC` (stereo not drawn) [Compound No. 43, 8-(cyclohexanon-2-yl)-13-ethyldihydropalmatine], the IC50 was ≥ 100 µM.

For the compound `COc1ccc2c(c1OC)C(C1CC1)N1CCc3cc4c(cc3C1=C2)OCO4` (stereo not drawn) [Compound No. 36], the IC50 is ≥ 100 µM.

Take `Oc1cc2c(cc1O)-c1cc3ccc(O)c(O)c3c[n+]1CC2` [Compound No. 3, 2,3,9,10-Tetrahydroxyberberine]: the IC50 was ≥ 100 µM. As for `CCCCC1c2c(ccc(OC)c2OC)C(CC)=C2c3cc(OC)c(OC)cc3CCN21` (stereo not drawn) [Compound No. 50, 8-n-butyl-13-ethyldihydropalmatine], the IC50 is ≥ 100 µM. The same measure, in the same setting: under `CCC1=C2c3cc(OC)c(OC)cc3CCN2C(C)c2c1ccc(OC)c2OC` (stereo not drawn) [Compound No. 48, 8-Methyl-13-ethyldihydropalmatine] stands ≥ 100 µM; under `CCCCc1c2[n+](cc3c(OC)c(OC)ccc13)CCc1cc(OC)c(OC)cc1-2` [Compound No. 12, 13-n-butylpalmatine], 10 to 100 µM.

As to `COc1cc2c(cc1OC)C1=Cc3ccc(OC)c(OC)c3C(C)N1CC2` (stereo not drawn) [Compound No. 33, 8-Methyldihydropalmatine], the IC50 was ≥ 100 µM. Same read-out and setting: under `CCC1c2c(ccc(OC)c2OC)C=C2c3cc4c(cc3CCN21)OCO4` (stereo not drawn) [Compound No. 28, 8-Ethyldihydroberberine] stands ≥ 100 µM.

Turning to `CCC1=C2c3cc(OC)c(OC)cc3CCN2C(CC#N)c2c1ccc(OC)c2OC` (stereo not drawn) [Compound No. 41, 8-Cyanomethyl-13-ethyldihydropalmatine], the IC50 is ≥ 100 µM. For `CCC1=C2c3cc(OC)c(OC)cc3CCN2C(C2CCCC2=O)c2c1ccc(OC)c2OC` (stereo not drawn) [Compound No. 42, 8-(cyclopentanon-2-yl)-13-ethyldihydropalmatine], the IC50 is ≥ 100 µM. Same read-out and setting: in the case of `CCCCCCCCc1c2[n+](cc3c(OC)c(OC)ccc13)CCc1cc(OC)c(OC)cc1-2` [Compound No. 14, 13-n-octylpalmatine] it was ≥ 100 µM; in that of `COc1ccc2c(C3CCOC3=O)c3[n+](cc2c1OC)CCc1cc2c(cc1-3)OCO2` (stereo not drawn) [Compound No. 23, 13-α-(γ-lactonyl)berberine], ≥ 100 µM; in that of `CCOc1cc2c(cc1OCC)C1=C(CC)c3ccc(OCC)c(OCC)c3C(CC(C)=O)N1CC2` (stereo not drawn) [Compound No. 44, 8-Acetonyl-13-ethyl-2,3,9,10-tetraethoxy-dihydroprotoberberine], 10 to 100 µM. For the compound `CCCCCCCCC1c2c(ccc(OC)c2OC)C=C2c3cc4c(cc3CCN21)OCO4` (stereo not drawn) [Compound No. 35], the IC50 was ≥ 100 µM.

For `C=CCc1c2[n+](cc3c(OC)c(OC)ccc13)CCc1cc3c(cc1-2)OCO3` [Compound No. 9, 13-Allylberberine], the IC50 is ≥ 100 µM. Same read-out and setting: in the case of `CCC1c2c(ccc(OC)c2OC)C=C2c3cc(OC)c(OC)cc3CCN21` (stereo not drawn) [Compound No. 34, 8-Ethyldihydropalmatine] it was ≥ 100 µM; in that of `CCOC(=O)c1c2[n+](cc3c(OC)c(OC)ccc13)CCc1cc(OC)c(OC)cc1-2` [Compound No. 19, 13-Ethoxycrbonylpalmatine], ≥ 100 µM; in that of `CCCCC1c2c(ccc(OC)c2OC)C=C2c3cc4c(cc3CCN21)OCO4` (stereo not drawn) [Compound No. 30, 8-n-butyldihydroberberine], ≥ 100 µM. Turning to `CCOC(=O)Cc1c2[n+](cc3c(OC)c(OC)ccc13)CCc1cc(OC)c(OC)cc1-2` [Compound No. 20, 13-Ethoxycarbonylmethylpalmatine], the IC50 is ≥ 100 µM.

Turning to `COc1ccc2c(c1OC)C(CC1CCCCC1)N1CCc3cc4c(cc3C1=C2)OCO4` (stereo not drawn) [Compound No. 31, 8-Cyclohexylmethyldihydroberberine], the IC50 was ≥ 100 µM. On the same count and under the same terms, in the case of `CCCC1c2c(ccc(OC)c2OC)C=C2c3cc4c(cc3CCN21)OCO4` (stereo not drawn) [Compound No. 29, 8-n-propyldiydroberberine] it was ≥ 100 µM; in that of `C=CCc1c2[n+](cc3c(O)c(O)ccc13)CCc1cc(O)c(O)cc1-2` [Compound No. 10, 2,3,9,10-Tetrahydroxy-13-allylberberine], ≥ 100 µM. In the case of `COc1cc2c(cc1OC)-c1c(CC3CCCCC3)c3ccc(OC)c(OC)c3c[n+]1CC2` [Compound No. 15, 13-(cyclohexylmethyl)palmatine], the IC50 was ≥ 100 µM. On to `COc1ccc2c(c1OC)C(CC(C)=O)N1CCc3cc4c(cc3C1=C2)OCO4` (stereo not drawn) [Compound No. 26, 8-Acetonyldihydroberberine], for which the IC50 is ≥ 100 µM. Regarding `COc1cc2c(cc1OC)-c1c(CC3CC3)c3ccc(OC)c(OC)c3c[n+]1CC2` [Compound No. 13, 13-(cyclopropylmethyl)palmatine], the IC50 was ≥ 100 µM. The same measure, in the same setting: under `CCC1=C2c3cc(OC)c(OC)cc3CCN2C(CC(=O)CC(C)C)c2c1ccc(OC)c2OC` (stereo not drawn) [Compound No. 40, 8-(4-methylpentan-2-one-1-yl)-13-ethyldihydropalmatine] stands 10 to 100 µM; under `CCc1c2[n+](cc3c(NCCO)c(OC)ccc13)CCc1cc(OC)c(OC)cc1-2` [Compound No. 25, 9-Hydroxyethylamino-13-ethylberberine], 10 to 100 µM; under `CCc1c2[n+](cc3c(O)c(O)ccc13)CCc1cc(O)c(O)cc1-2` [Compound No. 7, 2,3,9,10-Tetrahydroxy-13-ethylberberine], 10 to 100 µM. Still for that read-out and setting: in the case of `CCOC(=O)Cc1c2[n+](cc3c(OC)c(OC)ccc13)CCc1cc3c(cc1-2)OCO3` [Compound No. 24, 13-Ethoxycarbonylmethylberberine] it was ≥ 100 µM. The same measure, in the same setting: under `CCCc1c2[n+](cc3c(OC)c(OC)ccc13)CCc1cc(OC)c(OC)cc1-2` [Compound No. 11, 13-n-propylpalmatine] stands 10 to 100 µM; under `Cc1c2[n+](cc3c(O)c(O)ccc13)CCc1cc(O)c(O)cc1-2` [Compound No. 4, 2,3,9,10-Tetrahydroxy-13-methylberberine], 10 to 100 µM; under `CCC1=C2c3cc(OC)c(OC)cc3CCN2C(CC(=O)C(C)C)c2c1ccc(OC)c2OC` (stereo not drawn) [Compound No. 39, 8-(3-methylbutan-2-one-1-yl)-13-ethyldihydro palmatine], 10 to 100 µM. For the compound `COc1cc2c(cc1OC)-c1c(CCC3OCCCO3)c3ccc(OC)c(OC)c3c[n+]1CC2` [Compound No. 18, 13-(1,3-dioxane-2-yl)ethylpalmatine], the IC50 is ≥ 100 µM. In the case of `COc1cc2c(cc1OC)-c1c(CCCI)c3ccc(OC)c(OC)c3c[n+]1CC2` [Compound No. 16, 13-Iodopropylpalmatine], the IC50 lay within 10 to 100 µM. Take `COC(=O)C(C)c1c2[n+](cc3c(OC)c(OC)ccc13)CCc1cc3c(cc1-2)OCO3` (stereo not drawn) [Compound No. 22, 13-(1-methoxycarbonylethyl)berberine]: the IC50 is ≥ 100 µM.

As for `COc1cc2c(cc1OC)-c1c(CC(=O)O)c3ccc(OC)c(OC)c3c[n+]1CC2` [Compound No. 21, 13-Carboxymethylpalmatine], the IC50 is ≥ 100 µM. Still for that read-out and setting: in the case of `CCC1=C2c3cc(OC)c(OC)cc3CCN2C(CC)c2c1ccc(OC)c2OC` (stereo not drawn) [Compound No. 49, 8-Ethyl-13-ethyldihydropalmatine] it was ≥ 100 µM. Regarding `COc1ccc2c(c1OC)C(C)N1CCc3cc4c(cc3C1=C2)OCO4` (stereo not drawn) [Compound No. 27, 8-Methyldihydroberberine], the IC50 is ≥ 100 µM. With `COc1ccc2c(c1OC)C(C(C)C)N1CCc3cc4c(cc3C1=C2)OCO4` (stereo not drawn) [Compound No. 32, 8-i-propyldihydroberberine], the IC50 is ≥ 100 µM. As for `CCCCOc1cc2c(cc1OCCCC)-c1cc3ccc(OCCCC)c(OCCCC)c3c[n+]1CC2` [Compound No. 17, 2,3,9,10-Tetra-n-butoxyprotoberberine], the IC50 is 10 to 100 µM. Still for that read-out and setting: in the case of `CCOc1cc2c(cc1OCC)C1=C(CC)c3ccc(OCC)c(OCC)c3C(CC(=O)C(C)C)N1CC2` (stereo not drawn) [Compound No. 45, 8-(3-methylbutan-2-one-1-yl)-13-ethyl-2,3,9,10-tetra ethoxydihydroprotoberberine] it was 10 to 100 µM.

The values are drawn from patent US6255317A, “Cholesterol biosynthesis inhibitors” (Hanwha Chemical Corporation, priority 1998, dated 2001).
